Patent publication US8563526B2, “Triazole derivatives, their preparation and their application in therapeutics” (Institut National de la Sante et de la Recherche Medicale …, priority 2008, dated 2013)
Read-outs that look alike come from different tables or passages of the source.

How the values were obtained:
Capan-2 cells = experiment: MTT cell survival assay on Capan-2 cells; type: cell-based; conditions: for cells die / cell viability: FIG. 2; for inhibition at 50 µM: Homo sapiens, Capan-2, 48 h, read-out: Inhibition effect on Capan-2 at 50 μM (%)
Description: For Capan-2 cell lines, the cells were cultured in RPMI 1640 medium supplemented with 10% FBS and 1% glutamine. Cells were seeded at a densitiy of 20,000 cells per well in 96 well View Plate™ (Packard) in 250 μl of medium containing the same components as described above.
(§1) Cells were allowed to adhere and proliferate for 24 hr. At that time, culture medium was removed and serial dilutions from 10 nM to 200 μM of the test compounds were added in culture medium. Gemcitabine and no treatment were included as positive and negative controls. Plates were further incubated at 37° C. and 5% CO2 for 48 hours. The number of viable cells remaining after the appropriate treatment was determined by Colorimetric Assay (3-(4,5-dimethylthiazol-2-yl)-2,5-diphenyl tetrazolium bromide, MTT).
(§2) Inhibition of MiaPaCa and Capan-2 cells were tested at different doses of compounds of the invention: 50 μM, 100 μM and 200 μM.
(§3) Cells were seeded on 96-well plates in 250 μL media and 24 hours later, compound to be tested was added in 250 μL of media to the desired final concentration (from 10 nM to 200 μM). After 48 hours, the number of viable cells remaining after the appropriate treatment was determined by MTT. Minimum Efficient Dose (MED) and IC50 values was evaluated from the dose-dependency study. The results in FIGS. 1, 2, 4 and 5 are presented in percentage of cell growth inhibition compared to control non treated cells.

MiaPaCa-2 cells = experiment: Combination effect with gemcitabine in vitro, MTT assay on MiaPaCa-2 cells; type: cell-based; conditions: combined with gemcitabine, MiaPaCa-2, FIG. 9
From the text: FIG. 9 illustrates the beneficial combination effect of compounds (1, 4 or 18) in vitro based on the results obtained by using a MTT assay on MiaPaCa-2 cells.
Three compounds (compounds n^o 1, 4 and 18) combined with gemcitabine were accessed their anticancer activity.

MiaPaCa cells [1] = experiment: Apoptosis evaluation on MiaPaCa cells by flow cytometry (sub-G0 ratio); type: cell-based; conditions: 24 h after administration, FIG. 3
Description: Cells were plated in 10 cm dishes at the density of 300 000 cells/plate. Cells were stopped for flow cytometry analysis 12, 24 and 48 h post-treatment. After trypsination, cell pellet was washed with PBS and fixed in cold-ethanol 70% overnight at 4° C. After a wash with phosphate-citrate buffer, cells were treated with 200 μL RNA-ase (500 μg/mL), labeled with 1 mL propidium iodide (50 μg/mL), and immediately analyzed by flow cytometry (FACS Calibur, Becton Dickinson, Le Pont-De-Claix, France). Cell death analysis was done on 1,000,000 cells, evaluating the sub-G0 ratio. Each sample was performed in triplicate.

p-8 mRNA = p-8 mRNA expression in MiaPaCa-2 cells by quantitative RT-PCR; type: cell-based; conditions: FIG. 12
From the text: The stress-associated protein, p-8 with antiapoptotic properties was strongly expressed in two of the most resistant pancreactic cancer cell lines, while Heat Shock Protein 27 (Hsp27) is a protein which can be over-expressed in many tumor cells and protects against apoptotic cell death triggered by various stimuli. So in order to study the intracellular target of the active compounds, the effect of the active compounds on the expression of p-8 and Hsp27 mRNA in MiaPaCa-2 cells were investigated by quantitative RT-PCR. First-strand cDNA was synthesized in 20 μL reaction with 1 μg total RNA using Expand Reverse Transcriptase (Roche, Meylan, France) following the instructions of the manufacturer. Quantitative PCR was done with the Light Cycler system (Roche) and Takara (Berkeley, Calif.) reagents. Five microliters of 10-fold diluted cDNA were mixed with 10 μL SYBR Premix Ex Taq (including Taq polymerase, reaction buffer, MgCl2, SYBR green I dye, and deoxynucleotide triphosphate mix) and […] forward and reverse primers (TBP primers are used as a control) in a volume of 20 μL. […] Each sample was analyzed in duplicate and the experiment was repeated twice. Results were analyzed using RelQuant (Roche) and expressed as percent of control values.

MiaPaCa cells [2] = experiment: MTT cell survival assay on MiaPaCa cells; type: cell-based; conditions: for inhibition at 50 µM: Homo sapiens, MIA PaCa-2, 48 h
Description: Pancreactic cancer cell lines, MiaPaCa cells were cultured in DMEM medium (Gibco) supplemented with 10% fetal bovine serum (FBS). Cells were seeded at a densitiy of 15,000 cells per well in 96 well View Plate™ (Packard) in 250 μl of medium containing the same components as described above.
as §1, §2, §3

[3] = test system: MiaPaCa-2-xenografed tumors; experiment: MiaPaCa-2 xenograft tumor growth in nude mice; type: in vivo
Description: The antitumor effects of the active compounds 1 and 4 were evaluated in nude mice bearing MiaPaCa-2-xenografed tumors. Institutional guidelines for the proper and human use of animals in research were followed. Approximately 1×10^7 MiaPaCa-2 cells were inoculated subcutaneously with 0.1 mL of Matrigel (BD Biosciences Discovery Labware) to 6-week-old male xenografed nude mice. When MiaPaCa-2 tumors reached 100 mm^3, mice were randomly selected for treatment with test compound and no treated mice were used as control. Each experimental group consisted of 8 mice. After randomization, 150 mg/kg test compound was injected every three days by i.p. injection for 5 weeks. The combination injection was performed every two days. Tumor volume measurements were performed once weekly and calculated by the formula length×width×depth×0.5236.

pancreatic cancer = pancreatic cancer patients, first-line treatment; cited from earlier work
[4] = 50 μM, 48 hours, MTT, Table II, read-out: Inhibition effect on MiaPaCa at 50 μM (%)
[5] = 50 μM, 48 hours, MTT, Table III
[6] = 50 μM, 48 hours, MTT, Table III, read-out: Inhibition effect on MiaPaCa-2 at 50 μM (%)

SMILES: COC(=O)c1nc(C#Cc2ccc(C(F)(F)F)cc2)n([C@@H]2O[C@H](COC(C)=O)[C@@H](OC(C)=O)[C@H]2OC(C)=O)n1 [Compound 1, Methyl 5-(4-trifluoromethylphenylethynyl)-1-(2,3,5-tri-O-acetyl-β-D-ribofuranosyl)-1H-[1,2,4]triazole-3-carboxylate]
- cells die (Capan-2 cells; Capan-2, 50 μM): about 60%
- cells die (Capan-2 cells; Capan-2, 100 μM): more than 80%
- inhibition at 50 µM (Capan-2 cells; 50 μM, 48 hours, MTT, Table II): > 50%
- antiproliferation in combination with gemcitabine (MiaPaCa-2 cells): more efficiency on antiproliferation
- apoptosis compared to cells treated with gemcitabine (MiaPaCa cells [1]): about 4 times
- apoptosis compared to non-treated cells (MiaPaCa cells [1]): about 8 times
- p-8 mRNA expression (p-8 mRNA; combination with gemcitabine): down-regulated
- inhibition at 50 µM (MiaPaCa cells [2]; [4]): > 50%
- cells die (MiaPaCa cells [2]; MiaPaCa, 50 μM, FIG. 1): about 60%
- MiaPaCa-2 tumor volume ([3]; 150 mg/kg i.p. every three days for 5 weeks, compound alone, FIG. 10): reduce MiaPaCa-2 tumor volume
- adverse effect of drug treatment ([3]; alone or in combination with gemcitabine, nude mice, FIG. 11): absence of adverse effect
- tumor growth ([3]; combined with gemcitabine, injection every two days, FIG. 10): almost sinificantly inhibited

SMILES: COC(=O)c1nc(C#CC2=CCCCC2)n([C@@H]2O[C@H](COC(C)=O)[C@@H](OC(C)=O)[C@H]2OC(C)=O)n1 [Compound 2, Methyl 5-(Cyclohexenylethynyl)-1-(2,3,5-tri-O-acetyl-β-D-ribofuranosyl)-1H-[1,2,4]triazole-3-carboxylate]
- cell viability (Capan-2 cells; Capan-2, doses higher than 100 μM): cell viability rapidly decreases
- inhibition at 50 µM (Capan-2 cells; 50 μM, 48 hours, MTT, Table II): 57.6%
- inhibition at 50 µM (MiaPaCa cells [2]; [4]): 21.3%

SMILES: NC(=O)c1nc(C#Cc2ccc(Br)cc2)n(COCCO)n1 [Compound 14, 1-((2-hydroxyethoxy)methyl)-5-(2-(4-bromophenyl)ethynyl)-1H-1,2,4-triazole-3-carboxamide]
- inhibition at 50 µM (Capan-2 cells; [5]): > 50%
- inhibition at 50 µM (MiaPaCa cells [2]; [6]): > 50%

SMILES: NC(=O)c1nc(C#Cc2ccc(C(F)(F)F)cc2)n(COCCOC(=O)c2ccccc2)n1 [Compound 15, 1-[(2-(benzoyloxy)ethoxy)methyl]-5-(2-(4-trifluoromethylphenyl)ethynyl)-1H-1,2,4-triazole-3-carboxamide]
- inhibition at 50 µM (Capan-2 cells; [5]): > 50%
- inhibition at 50 µM (MiaPaCa cells [2]; [6]): > 50%

SMILES: CCCCCCCCCCCCn1cc(-c2nc(C(N)=O)nn2COCCO)nn1 [Compound 17]
- Inhibition effect on Capan-2 at 50 μM (%) (Capan-2 cells; [5]): 29.5%
- Inhibition effect on MiaPaCa-2 at 50 μM (%) (MiaPaCa cells [2]; [5]): 43.2%

SMILES: COC(=O)c1nc(-c2cn(Cc3ccc4ccc5cccc6ccc3c4c56)nn2)n(COCCOC(C)=O)n1 [Compound 18, Methyl 1-((2-acetoxyethoxy)methyl)-5-(1-((pyren-3-yl)methyl)-1H-1,2,3-triazol-4-yl)-1H-1,2,4-triazole-3-carboxylate]
- inhibition at 50 µM (Capan-2 cells; [5]): > 50%
- antiproliferation in combination with gemcitabine (MiaPaCa-2 cells): more efficiency on antiproliferation
- p-8 mRNA expression (p-8 mRNA; single treatment): significantly inhibit

SMILES: NC(=O)c1nc(-c2cn(Cc3ccc4ccc5cccc6ccc3c4c56)nn2)n(COCCO)n1 [Compound 19, 1-((2-hydroxyethoxy)methyl)-5-(1-((pyren-3-yl)methyl)-1H-1,2,3-triazol-4-yl)-1H-1,2,4-triazole-3-carboxamide]
- inhibition at 50 µM (Capan-2 cells; [5]): 43.4%
- inhibition at 50 µM (MiaPaCa cells [2]; [6]): 59.3%

SMILES: NC(=O)c1nc(-c2cn(Cc3ccc4ccc5cccc6ccc3c4c56)nn2)nn1COCCO [Compound 20, 1-((2-hydroxyethoxy)methyl)-3-(1-((pyren-3-yl)methyl)-1H-1,2,3-triazol-4-yl)-1H-1,2,4-triazole-5-carboxamide]
- inhibition at 50 µM (Capan-2 cells; [5]): 60.6%
- inhibition at 50 µM (MiaPaCa cells [2]; [6]): 28.7%

SMILES: NC(=O)c1nc(-c2cn(-c3cccc4ccccc34)nn2)n(COCCO)n1 [Compound 21, 1-((2-hydroxyethoxy)methyl)-5-(1-(naphthalen-1-yl)-1H-1,2,3-triazol-4-yl)-1H-1,2,4-triazole-3-carboxamide]
- inhibition at 50 µM (Capan-2 cells; [5]): 55.6%
- inhibition at 50 µM (MiaPaCa cells [2]; [6]): 30.9%

SMILES: COC(=O)c1nc(-c2cn(-c3ccc4ccc5cccc6ccc3c4c56)nn2)n(COCCOC(C)=O)n1 [Compound 22, Methyl 1-((2-acetoxyethoxy)methyl)-5-(1-(pyren-3-yl)-1H-1,2,3-triazol-4-yl)-1H-1,2,4-triazole-3-carboxylate]
- inhibition at 50 µM (Capan-2 cells; [5]): 63.9%
- inhibition at 50 µM (MiaPaCa cells [2]; [6]): 40.7%

SMILES: Nc1ccn([C@@H]2O[C@H](CO)[C@@H](O)C2(F)F)c(=O)n1 [Gemcitabine, reference compound]
- cell viability (Capan-2 cells; Capan-2, with dose increase): cell viability stagnates
- inhibition at 50 µM (Capan-2 cells; 50 μM, 48 hours, MTT, Table II): 61.7%
- inhibition at 50 µM (Capan-2 cells; [5]): 61.7%
- response (pancreatic cancer): 12%
- inhibition at 50 µM (MiaPaCa cells [2]; [4]): 29.3%
- inhibition at 50 µM (MiaPaCa cells [2]; [6]): 29.3%
- cells remaining alive (MiaPaCa cells [2]; MiaPaCa, 50 μM or 100 μM, FIG. 1): about 80%
